Results reported in PubChem BioAssay AID330 (DTP/NCI, 2004).
Where “and” joins values, the source holds several entries; their conditions need not be identical. Equal values may be shown once. Inconclusive results and toxic doses are left out.

Tested on: P388 leukemia ip, CD2F1 mice, survival T/C
Test: NCI In Vivo Anticancer Drug Screen. Data for tumor model P388 Leukemia (intraperitoneal) in CD2F1 (CDF1) mice
Details: endpoint: median survival time, higher = longer survival
Method in brief: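 Mice carrying the transplanted tumor received test compound or vehicle. Survival was recorded in each group, and the value is the treated-group measurement divided by that of the vehicle-treated control group.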

[1] = dose: 60.0 mg/kg/injection, schedule: Q01DX005 (ip), vehicle: saline with Tween-80
[2] = dose: 120.0 mg/kg/injection, schedule: Q01DX005 (ip), vehicle: saline with Tween-80
[3] = dose: 240.0 mg/kg/injection, schedule: Q01DX005 (ip), vehicle: saline with Tween-80
[4] = dose: 1.56 mg/kg/injection, schedule: Q01DX005 (ip), vehicle: Klucel (hydroxypropylcellulose) (HPC)
[5] = dose: 3.12 mg/kg/injection, schedule: Q01DX005 (ip), vehicle: Klucel (hydroxypropylcellulose) (HPC)
[6] = dose: 6.25 mg/kg/injection, schedule: Q01DX005 (ip), vehicle: Klucel (hydroxypropylcellulose) (HPC)
[7] = dose: 50.0 mg/kg/injection, schedule: Q01DX009 (ip), vehicle: Klucel (hydroxypropylcellulose) (HPC)
[8] = dose: 100.0 mg/kg/injection, schedule: Q01DX009 (ip), vehicle: Klucel (hydroxypropylcellulose) (HPC)
[9] = dose: 200.0 mg/kg/injection, schedule: Q01DX009 (ip), vehicle: Klucel (hydroxypropylcellulose) (HPC)
[10] = dose: 50.0 mg/kg/injection, schedule: Q01DX005 (ip), vehicle: Klucel (hydroxypropylcellulose) (HPC)
[11] = dose: 100.0 mg/kg/injection, schedule: Q01DX005 (ip), vehicle: Klucel (hydroxypropylcellulose) (HPC)
[12] = dose: 50.0 mg/kg/injection, schedule: Q01DX005 (ip), vehicle: saline
[13] = dose: 100.0 mg/kg/injection, schedule: Q01DX005 (ip), vehicle: saline
[14] = dose: 200.0 mg/kg/injection, schedule: Q01DX005 (ip), vehicle: saline
[15] = dose: 50.0 mg/kg/injection, schedule: Q01DX009 (ip), vehicle: saline
[16] = dose: 100.0 mg/kg/injection, schedule: Q01DX009 (ip), vehicle: saline
[17] = dose: 60.0 mg/kg/injection, schedule: Q01DX005 (ip), vehicle: saline
[18] = dose: 120.0 mg/kg/injection, schedule: Q01DX005 (ip), vehicle: saline
[19] = dose: 240.0 mg/kg/injection, schedule: Q01DX005 (ip), vehicle: saline
[20] = dose: 100.0 mg/kg/injection, schedule: Q04DX002 (ip), vehicle: Klucel (hydroxypropylcellulose) (HPC)
[21] = dose: 200.0 mg/kg/injection, schedule: Q04DX002 (ip), vehicle: Klucel (hydroxypropylcellulose) (HPC)
[22] = dose: 400.0 mg/kg/injection, schedule: Q04DX002 (ip), vehicle: Klucel (hydroxypropylcellulose) (HPC)
[23] = dose: 60.0 mg/kg/injection, schedule: Q01DX005 (ip), vehicle: Klucel (hydroxypropylcellulose) (HPC)
[24] = dose: 120.0 mg/kg/injection, schedule: Q01DX005 (ip), vehicle: Klucel (hydroxypropylcellulose) (HPC)
[25] = dose: 240.0 mg/kg/injection, schedule: Q01DX005 (ip), vehicle: Klucel (hydroxypropylcellulose) (HPC)
[26] = dose: 100.0 mg/kg/injection, schedule: Q01DX001 (ip), vehicle: saline with Tween-80
[27] = dose: 200.0 mg/kg/injection, schedule: Q01DX001 (ip), vehicle: saline with Tween-80
[28] = dose: 400.0 mg/kg/injection, schedule: Q01DX001 (ip), vehicle: saline with Tween-80

CCOC(=O)c1sc(C(=O)OCC)c2c1-c1cccc3cccc-2c13 was tested, and the T/C [1] was 100 % of control, the T/C [2] was 99 % of control and the T/C [3] was 97 % of control.

For Nc1ncnc2[nH]c(=S)[nH]c12, the T/C [4] was 110 % of control, the T/C [5] was 94 % of control and the T/C [6] was 99 % of control and 97 % of control.

For CCOC(=O)C1CCC(=O)N1Cc1c[nH]c2ccccc12 (centres undefined), the T/C [1] was 92 % of control, the T/C [2] was 94 % of control and the T/C [3] was 94 % of control.

For Oc1ccc(C2(c3ccc(O)cc3)C3CC4CC(C3)CC2C4)cc1, the T/C [7] was 104 % of control, the T/C [8] was 103 % of control and the T/C [9] was 100 % of control.

With CC[N+](C)(C)c1ccccc1 the T/C (dose: 6.25 mg/kg/injection, schedule: Q04DX002 (ip), vehicle: saline) was 102 % of control, the T/C (dose: 12.5 mg/kg/injection, schedule: Q04DX002 (ip), vehicle: saline) was 105 % of control and the T/C (dose: 25.0 mg/kg/injection, schedule: Q04DX002 (ip), vehicle: saline) was 99 % of control and 102 % of control.

CC(=O)Oc1nnc(OC(C)=O)n1-c1ccccc1 was tested, and the T/C [10] was 114 % of control, the T/C [11] was 111 % of control and the T/C (dose: 200.0 mg/kg/injection, schedule: Q01DX005 (ip), vehicle: Klucel (hydroxypropylcellulose) (HPC)) was 115 % of control.

In the case of C[C@H]1C(=O)N(C)C(=O)[C@@H]1N, the T/C [12] is reported as 97 % of control, the T/C [13] is reported as 97 % of control and the T/C [14] is reported as 95 % of control.

In the case of CCCCCCSCN(CC)CC, the T/C [15] is reported as 103 % of control, the T/C [16] is reported as 107 % of control and the T/C (dose: 200.0 mg/kg/injection, schedule: Q01DX009 (ip), vehicle: saline) is reported as 112 % of control.

For CC1OC2=C(C(=O)c3ccccc3C2=O)C(O)C1O (centres undefined), the T/C (dose: 25.0 mg/kg/injection, schedule: Q01DX001 (ip), vehicle: Klucel (hydroxypropylcellulose) (HPC)) was 96 % of control and the T/C (dose: 50.0 mg/kg/injection, schedule: Q01DX001 (ip), vehicle: Klucel (hydroxypropylcellulose) (HPC)) was 96 % of control.

For O=C(NNC(=O)c1ccncc1)Nc1cccc(Cl)c1, the T/C [7] was 95 % of control and the T/C [8] was 96 % of control.

With Cc1cccc(Oc2ccc(C(F)(F)F)cc2[N+](=O)[O-])c1C the T/C [15] was 99 % of control and the T/C [16] was 99 % of control.

For Oc1cccc2ccccc12, the T/C (dose: 25.0 mg/kg/injection, schedule: Q01DX005 (ip), vehicle: water) was 100 % of control, the T/C (dose: 50.0 mg/kg/injection, schedule: Q01DX005 (ip), vehicle: water) was 101 % of control and the T/C (dose: 100.0 mg/kg/injection, schedule: Q01DX005 (ip), vehicle: water) was 111 % of control. The T/C (dose: 200.0 mg/kg/injection, schedule: Q01DX005 (ip), vehicle: water) was 104 % of control and the T/C (dose: 400.0 mg/kg/injection, schedule: Q01DX005 (ip), vehicle: water) was 93 % of control.

For CS(=O)(=O)C(c1nc2n(c1O)/C(=N/C(=O)Nc1ccc(Cl)cc1)N=N2)c1nc2n(c1O)/C(=N/C(=O)Nc1ccc(Cl)cc1)N=N2, the T/C [17] was 97 % of control, the T/C [18] was 96 % of control and the T/C [19] was 95 % of control.

CC(C)(CN)SCc1ccccc1 was tested, and the T/C (dose: 25.0 mg/kg/injection, schedule: Q01DX009 (ip), vehicle: saline) was 100 % of control, the T/C (dose: 25.0 mg/kg/injection, schedule: Q04DX003 (ip), vehicle: saline) was 100 % of control and the T/C [15] was 100 % of control. The T/C (dose: 50.0 mg/kg/injection, schedule: Q04DX003 (ip), vehicle: saline) was 86 % of control, the T/C [16] was 100 % of control and the T/C (dose: 100.0 mg/kg/injection, schedule: Q04DX003 (ip), vehicle: saline) was 90 % of control.

For CCCCCOC(=O)c1ccccc1OP(=O)(N(C)C)N(C)C, the T/C [12] was 103 % of control and the T/C [13] was 110 % of control.

With C=COC(=O)C(Cc1ccc([N+](=O)[O-])cc1)NC(=O)OCc1ccccc1 (centres undefined) the T/C [20] was 97 % of control, the T/C [21] was 100 % of control and the T/C [22] was 92 % of control.

For CC(=O)OC1C=CCC2C(=O)OC(=O)C12 (centres undefined), the T/C (dose: 30.0 mg/kg/injection, schedule: Q01DX005 (ip), vehicle: Klucel (hydroxypropylcellulose) (HPC)) was 103 % of control and 90 % of control, the T/C [23] was 100 % of control and the T/C [24] was 105 % of control and 90 % of control.

For O=C(c1ccccc1)C1Nc2ccccc2CO1 (centres undefined), the T/C [23] was 99 % of control, the T/C [24] was 107 % of control and the T/C [25] was 97 % of control.

For COc1ccc(/C=N/N2CN(C(C)C(=O)O)B(N(CCO)CCO)N=C2N)cc1OC (centres undefined), the T/C [17] was 104 % of control, the T/C [18] was 107 % of control and the T/C [19] was 107 % of control.

For CN=C(NC)c1ccc(NC(=O)c2ccc(C(=O)Nc3ccc(C(=NC)NC)c(C)c3)cc2)cc1C, the T/C (dose: 6.25 mg/kg/injection, schedule: Q01DX005 (ip), vehicle: saline with Tween-80) was 111 % of control and 118 % of control, the T/C (dose: 12.5 mg/kg/injection, schedule: Q01DX005 (ip), vehicle: saline with Tween-80) was 119 % of control and the T/C (dose: 25.0 mg/kg/injection, schedule: Q01DX005 (ip), vehicle: saline with Tween-80) was 164 % of control and 173 % of control.

For CC1(C)CC(OP(=O)(OC2CC(C)(C)N(O)C(C)(C)C2)OC2CC(C)(C)N(O)C(C)(C)C2)CC(C)(C)N1O, the T/C [20] was 92 % of control, the T/C [21] was 99 % of control and the T/C [22] was 104 % of control.

In the case of N#CCc1nc2ccccc2nc1Cl, the T/C (dose: 50.0 mg/kg/injection, schedule: Q01DX009 (ip), vehicle: distilled water + Tween-80 + alcohol) is reported as 100 % of control and the T/C (dose: 100.0 mg/kg/injection, schedule: Q01DX009 (ip), vehicle: distilled water + Tween-80 + alcohol) is reported as 94 % of control.

For N#CC1CCCC(C#N)N1CN1C(C#N)CCCC1C#N (centres undefined), the T/C [10] was 97 % of control and the T/C [11] was 88 % of control.

For O=C(CCc1ccccc1)OC/C=C/COC(=O)c1ccccc1, the T/C [7] was 102 % of control, the T/C [8] was 111 % of control and the T/C [9] was 106 % of control.

For C=C(Cl)C(=NC(C)C)Nc1ccccc1C, the T/C (dose: 0.79 mg/kg/injection, schedule: Q01DX005 (ip), vehicle: Klucel (hydroxypropylcellulose) (HPC)) was 112 % of control, the T/C [4] was 100 % of control and 107 % of control and the T/C [5] was 107 % of control and 110 % of control and 115 % of control. For the same molecule, the T/C [6] was 118 % of control and 86 % of control and the T/C (dose: 12.5 mg/kg/injection, schedule: Q01DX005 (ip), vehicle: Klucel (hydroxypropylcellulose) (HPC)) was 102 % of control and 114 % of control.

With CCC(c1ccc(OC)cc1)C(NC(=S)Nc1ccc(C)cc1)c1ccc(OC)cc1 (centres undefined) the T/C [26] was 88 % of control, the T/C [27] was 88 % of control and the T/C [28] was 90 % of control.

With CC1=NN(c2ccccc2)C(=O)C1N=Nc1cc(Cl)cc(S(=O)(=O)O)c1O (centres undefined) the T/C [15] was 96 % of control and the T/C [16] was 97 % of control.

For COC(=O)C(Cc1c[nH]c2ccccc12)N1CN(C)c2ccccc2C1=O (centres undefined), the T/C [23] was 98 % of control, the T/C [24] was 98 % of control and the T/C [25] was 90 % of control.

In the case of CCC1=Nc2ccccc2C(c2ccccc2)NC1=O (centres undefined), the T/C [23] is reported as 97 % of control, the T/C [24] is reported as 100 % of control and the T/C [25] is reported as 94 % of control.

For C=C(C(=O)O)C(N)C(=O)O (centres undefined), the T/C (dose: 25.0 mg/kg/injection, schedule: Q01DX005 (ip), vehicle: saline) was 98 % of control, the T/C [12] was 98 % of control and the T/C [13] was 112 % of control. The T/C [14] was 97 % of control and the T/C (dose: 400.0 mg/kg/injection, schedule: Q01DX005 (ip), vehicle: saline) was 96 % of control.

In the case of FC(F)(F)c1ccc2[nH]c3c(c2c1)CCCC3, the T/C [26] is reported as 102 % of control, the T/C [27] is reported as 102 % of control and the T/C [28] is reported as 103 % of control.

In the case of COC(=O)C1Cc2cncn2C(=O)N1 (centres undefined), the T/C (dose: 8.0 mg/kg/injection, schedule: Q01DX009 (ip), vehicle: water) is reported as 108 % of control, the T/C (dose: 16.0 mg/kg/injection, schedule: Q01DX009 (ip), vehicle: water) is reported as 100 % of control and the T/C (dose: 32.0 mg/kg/injection, schedule: Q01DX009 (ip), vehicle: water) is reported as 103 % of control. For the same molecule, the T/C (dose: 64.0 mg/kg/injection, schedule: Q01DX009 (ip), vehicle: water) was 107 % of control.
